The values below come from patent publication US12473339B2, “Acylated glucagon analogues” (Zealand Pharma A/S, priority 2013, dated 2025).

The MRT is a mean duration of stay, worked out from the concentration-time curve. For orientation: clearance means a measure of how efficiently the substance is removed, as volume per time. Higher therefore signals a high capacity for elimination. What is called half-life is how long it takes for the measured level to halve. Read a low half-life as fast loss. For orientation: EC50 means the concentration at which the effect is half-maximal.

*1 amine or outer side, *2 acyl side, *3 side chain or, on linkers, in order; H or OH if unused. Where a SMILES comes first, the peptide text is derived from it. Side-chain parts run from the residue outwards. [ ]: non-standard residue; d: D form. The star is where a group is joined. C18 diacid = O=C(O)CCCCCCCCCCCCCCCCC(=O)*; γGlu = O=C(O)[C@H](CCC(=O)[*:2])N[*:1]; Ac4c = NC1(C(=O)O)CCC1; AEEA = NCCOCCOCC(=O)O; Aib = CC(C)(N)C(=O)O

The target of series [1] is T1, human glucagon-like peptide 1 receptor (GLP-1R) (Homo sapiens, UniProt P43220).
T1 construct: expressed in transfected cells
Nature of the series: GLP-1 receptor efficacy assay (cAMP AlphaScreen, CHO cells). It counts as cell-based. As to conditions: for Ratio GLP-1/Glucagon: EC50 [GLP-1R] / EC50 [Glucagon-R], human receptors in CHO-K1. The source says: (§1) The cDNA encoding either the human glucagon receptor (Glucagon-R) (primary accession number P47871) or the human glucagon-like peptide 1 receptor (GLP-1R) (primary accession number P43220) were synthesized and cloned into a mammalian expression vector containing a Zeocin resistance marker.
(§2) The mammalian expression vectors encoding the Glucagon-R or the GLP-1-R were transfected into Chinese hamster ovary (CHO) cells by the Attractene method. Stably expressing clones were obtained by Zeocin selection (250 μg/mL) upon limited dilution of cells resistant to the selection pressure. Glucagon-R and GLP-1-R cell clones expressing were picked, propagated and tested in the Glucagon-R and GLP-1-R efficacy assays as described below. One Glucagon-R expressing clone and one GLP-1-R expressing clone were chosen for compound profiling.
(§3) CHO cells expressing the human Glucagon-R, or human GLP-1-R were seeded 24 hours prior to the assay at 30,000 cells per well in 96-well microtiter plates in culture in 100 μl growth medium. On the day of analysis, growth medium was removed and the cells were washed once with 200 μl of assay buffer (Krebs-Ringer-buffer—KRBH). The buffer was removed and the cells were incubated for 15 min at room temperature in 10 μl KRBH (KRBH+10 mM HEPES, 5 mM NaHCO3, 0.1% (V/V) BSA) with 0.1 mM IBMX in deionized water containing increasing concentrations of test peptides. The reaction was stopped by the addition of lysis buffer (0.1% w/v BSA, 5 mM HEPES, 0.3% v/v Tween-20). After cell lysis for 10 min at room temperature, lysates were transferred to 384-well plates and 10 μl of acceptor/donorbead mixture as contained in the AlphaScreen™ cAMP Functional Assay Kit was added. After one hour of incubation at room temperature in the dark, the cAMP content was determined applying the AlphaScreen™ cAMP Functional Assay Kit from Perkin-Elmer according to manufacturer instructions. EC50 and relative efficacies compared to reference compounds (glucagon and GLP-1) were calculated applying computer aided curve fitting. The GLP-1/glucagon ratio is calculated as defined earlier.
A general note: Alpha assays give light when donor and acceptor beads are brought close together.

A short description of series [2]: Pharmacokinetic parameters after intravenous administration to rats. As to conditions: male, Han/Wistar, rat, in vivo, 20 nmol/kg. How it is done:
Pharmacokinetic parameters of the test compounds were determined after intravenous administration to Han/Wistar rats. The acylated GLP-1 analogue semaglutide was also tested for comparison purposes. Male Wistar rats were obtained from Charles River (Germany) weighing approximately 180 to 210 g at time of arrival at the test facility. Rats were caged in European standard rat cages type IV with light cycle of 12-hour dark and 12-hour light. During the study rats were housed in standard rat cages type III. Both diet Altromin 1324 (Altromin, Germany) and water was administered ad libitum during the whole experimental period. The animals were housed in the test facility for at least 4 days in order to assure proper acclimatization. The compounds were first dissolved in 0.1% aqueous ammonia to a nominal concentration of 2 mg/ml, and then diluted to the desired dosing strength (10 μM) in sterile PBS containing 25 mM phosphate buffer, pH 7.4. Intravenous injections corresponding to 20 nmol/kg were given via a lateral tail vein. Blood samples (200 μl) were collected from the periorbital plexus at time points 0.08, 0.25, 0.5, 1, 2, 4, 8, 24, 32 and 48 h post dosing into K3EDTA tubes and centrifuged for 5 minutes at 4° C. within 20 minutes of sampling. […] Individual plasma concentration-time profiles were analysed by a non-compartmental approach using ToxKin™ version 3.2 (Unilog IT Services), and the resulting pharmacokinetic parameters were determined.

The target of series [3] is T2, endogenous glucagon receptor (Rattus norvegicus, UniProt P30082).
T2 construct: Agonistic activity of the test compounds on endogenous glucagon receptor; endogenous in cells; host or cells: primary rat hepatocytes
In words: Agonistic activity on endogenous glucagon receptor (glycogen synthesis rate in primary rat hepatocytes). The format is cell-based. The conditions noted are these: inhibition of glycogen synthesis rate (14C-glucose incorporation), 3 hours. Here is the method:
Agonistic activity of the test compounds on endogenous glucagon receptor was determined by measuring their effect on rate of glycogen synthesis in primary rat hepatocytes. Upon activation of the glucagon receptor, an inhibition of the glycogen synthesis rate is expected. Rate of glycogen synthesis was determined by counting the amount of radioactively labeled glucose incorporated into the cellular glycogen stores in a defined period of time.
Primary rat hepatocytes were cultured at a density of 40,000 cells/well in a 24-well plate for 24 hours at 37° C. and 5% CO2.
Medium was discarded and the cells washed with PBS. 180 μL of KRBH-based buffer containing 0.1% BSA and glucose at a concentration of 22.5 mM was then added to the wells, followed by test compound and 40 μCi/ml D-[U14C] glucose (20 μL each). Incubation was continued for 3 hours.
At the end of the incubation period, the incubation buffer was aspirated and cells washed once with ice-cold PBS before lysis by incubation for 30 min at room temperature with 100 μL 1 mol/l NaOH.
Cell lysates were transferred to 96-well filter plates and glycogen precipitated by incubating the filter-plates for 120 min at 4° C. followed by washing the filter plates 4 times with ice-cold ethanol (70%). The resulting precipitates were filtered to dryness and the amount of incorporated ^14C-glucose determined by using a Topcount scintillation counter according to manufacturer's recommendations.
Wells with vehicle controls (0.1% (v/v) DMSO in KRBH buffer) were included as reference for non-inhibited glycogen synthesis (100% CTL). Wells without added D-[U^14C] glucose were included as controls for non-specific background signal (subtracted from all values). Endogenous glucagon peptide was used as a positive control.
All treatments were performed at least in duplicates.
Parameters calculated to describe both the potency as well as the agonistic activity of each test compound on the endogenous glucagon receptor are pEC50 and % CTL.
% CTL is determined by calculating the percentage of CPM/well in the presence of the test compound compared to the CPM/well of the vehicle control after subtracting the background CPM/well: [CPM/well(basal)−CPM/well(sample)]*100/[CPM/well(basal)−CPM/well(control)]
An activator of the glucagon receptor will result in an inhibition of the glycogen synthesis rate and will give % CTL values between 0% CTL (complete inhibition) and 100% CTL (no observable inhibition).
The resulting activity curves were plotted as absolute counts (unit: cpm/sample) over log (test compound concentration) and analyzed using the curve fitting program XLfit.
pEC50 (negative logarithmic value of EC50) reflects the potency of the test compound. […]

In series [4] the target is T3, human glucagon receptor (Glucagon-R) (Homo sapiens, UniProt P47871).
T3 construct: expressed in transfected cells
In words: Glucagon receptor efficacy assay (cAMP AlphaScreen, CHO cells). The conditions noted are these: cAMP formation, CHO cells expressing human Glucagon-R, 15 min; read-out: EC50 hGCGR CHO-K1. It counts as cell-based.
Description: as §1, §2, §3

T1 sequence (P43220 24-463): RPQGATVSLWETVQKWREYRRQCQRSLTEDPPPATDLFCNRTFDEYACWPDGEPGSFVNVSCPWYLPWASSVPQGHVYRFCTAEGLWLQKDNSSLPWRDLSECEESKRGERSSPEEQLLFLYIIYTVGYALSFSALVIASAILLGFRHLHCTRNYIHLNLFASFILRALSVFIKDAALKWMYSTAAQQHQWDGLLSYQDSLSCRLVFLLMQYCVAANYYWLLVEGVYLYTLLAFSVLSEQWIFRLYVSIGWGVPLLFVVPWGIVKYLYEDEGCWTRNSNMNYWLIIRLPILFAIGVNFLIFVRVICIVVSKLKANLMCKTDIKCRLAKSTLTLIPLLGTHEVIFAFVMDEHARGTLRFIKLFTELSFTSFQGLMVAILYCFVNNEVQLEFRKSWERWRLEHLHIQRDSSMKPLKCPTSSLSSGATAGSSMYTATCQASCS
T2 sequence (P30082 27-485): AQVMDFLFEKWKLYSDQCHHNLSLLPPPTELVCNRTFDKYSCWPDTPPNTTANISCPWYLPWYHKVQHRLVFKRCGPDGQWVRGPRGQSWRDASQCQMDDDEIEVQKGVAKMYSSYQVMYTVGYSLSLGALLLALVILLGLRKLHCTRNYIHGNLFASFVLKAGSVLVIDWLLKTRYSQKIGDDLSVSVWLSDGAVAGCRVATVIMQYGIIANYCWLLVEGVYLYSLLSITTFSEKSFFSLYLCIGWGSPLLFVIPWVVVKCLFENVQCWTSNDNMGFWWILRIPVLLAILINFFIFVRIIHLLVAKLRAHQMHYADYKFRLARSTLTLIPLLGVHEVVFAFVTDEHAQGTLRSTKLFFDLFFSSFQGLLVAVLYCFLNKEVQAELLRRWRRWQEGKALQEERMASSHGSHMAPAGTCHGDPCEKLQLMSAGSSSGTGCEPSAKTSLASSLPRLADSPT
T3 sequence (P47871 26-477): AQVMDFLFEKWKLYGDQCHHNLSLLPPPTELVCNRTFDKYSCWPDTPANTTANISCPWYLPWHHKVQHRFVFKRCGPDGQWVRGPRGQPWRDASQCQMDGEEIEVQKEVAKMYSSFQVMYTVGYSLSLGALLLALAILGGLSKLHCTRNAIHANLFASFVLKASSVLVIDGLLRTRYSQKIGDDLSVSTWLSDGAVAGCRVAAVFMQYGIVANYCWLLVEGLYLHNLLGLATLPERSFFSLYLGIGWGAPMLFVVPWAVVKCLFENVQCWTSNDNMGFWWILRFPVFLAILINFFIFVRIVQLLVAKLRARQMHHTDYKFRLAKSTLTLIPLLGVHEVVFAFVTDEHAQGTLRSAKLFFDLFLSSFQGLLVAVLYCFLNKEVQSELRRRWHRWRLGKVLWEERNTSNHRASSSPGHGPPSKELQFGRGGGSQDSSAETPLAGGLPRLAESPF

For `CC[C@H](C)[C@H](NC(=O)[C@H](Cc1ccccc1)NC(=O)[C@H](CC(=O)O)NC(=O)[C@H](CCCCN)NC(=O)[C@H](C)NC(=O)[C@H](C)NC(=O)[C@H](CCCNC(=N)N)NC(=O)[C@H](CCCCNC(=O)COCCOCCNC(=O)COCCOCCNC(=O)CC[C@H](NC(=O)CCCCCCCCCCCCCCCCC(=O)O)C(=O)O)NC(=O)[C@H](CC(=O)O)NC(=O)[C@H](CC(C)C)NC(=O)[C@H](Cc1ccc(O)cc1)NC(=O)[C@H](CCCCN)NC(=O)[C@H](CO)NC(=O)[C@H](Cc1ccc(O)cc1)NC(=O)[C@H](CC(=O)O)NC(=O)[C@H](CO)NC(=O)[C@@H](NC(=O)[C@H](Cc1ccccc1)NC(=O)[C@@H](NC(=O)CNC(=O)[C@H](CCC(N)=O)NC(=O)C(C)(C)NC(=O)[C@@H](N)Cc1c[nH]cn1)[C@@H](C)O)[C@@H](C)O)C(=O)N[C@@H](CCC(=O)O)C(=O)N[C@@H](Cc1c[nH]c2ccccc12)C(=O)N[C@@H](CC(C)C)C(=O)N[C@@H](CCC(=O)O)C(=O)N[C@@H](CO)C(=O)N[C@@H](C)C(N)=O` [Compound 2, H-H-Aib-QGTFTSDYSKYLD-K([17-carboxy-heptadecanoyl]-isoGlu-Peg3-Peg3)-RAAKDFIEWLESA-NH2] (H-H[Aib]QGTFTSDYSKYLDK([AEEA-AEEA-γGlu-C18 diacid])RAAKDFIEWLESA-NH2), the “Ratio GLP-1/Glucagon” value in series [1] was 13.54. In series [2], the mean residence time (MRT) came to 13.6 h, the clearance was found to be 0.11 mL/min/kg and the half-life is 9.1 h. Also, the EC50 in series [3] turned out to be 0.11 nM.

With `CC[C@H](C)[C@H](NC(=O)[C@H](Cc1ccccc1)NC(=O)[C@H](CC(=O)O)NC(=O)[C@H](CCCCN)NC(=O)[C@H](C)NC(=O)[C@H](CCCNC(=N)N)NC(=O)[C@H](CCCCNC(=O)COCCOCCNC(=O)COCCOCCNC(=O)CC[C@H](NC(=O)CCCCCCCCCCCCCCCCC(=O)O)C(=O)O)NC(=O)[C@H](CCC(=O)O)NC(=O)[C@H](CC(=O)O)NC(=O)[C@H](CC(C)C)NC(=O)[C@H](Cc1ccc(O)cc1)NC(=O)[C@H](CCCCN)NC(=O)[C@H](CO)NC(=O)[C@H](Cc1ccc(O)cc1)NC(=O)[C@H](CC(=O)O)NC(=O)[C@H](CO)NC(=O)[C@@H](NC(=O)[C@H](Cc1ccccc1)NC(=O)[C@@H](NC(=O)CNC(=O)[C@H](Cc1c[nH]cn1)NC(=O)C1(NC(=O)[C@@H](N)Cc2c[nH]cn2)CCC1)[C@@H](C)O)[C@@H](C)O)C(=O)N[C@@H](CCC(=O)O)C(=O)N[C@@H](Cc1c[nH]c2ccccc12)C(=O)N[C@@H](CC(C)C)C(=O)N[C@@H](CCC(=O)O)C(=O)N[C@@H](CO)C(=O)N[C@@H](C)C(N)=O` [Compound 9, H-H-Ac4c-HGTFTSDYSKYLDE-K([17-carboxy-heptadecanoyl]-isoGlu-Peg3-Peg3)-RAKDFIEWLESA-NH2] (H-H[Ac4c]HGTFTSDYSKYLDEK([AEEA-AEEA-γGlu-C18 diacid])RAKDFIEWLESA-NH2), in series [1], the “Ratio GLP-1/Glucagon” value stood at 13.86. In addition, the EC50 amounted to 0.97 nM in series [1] (cAMP formation, CHO cells expressing human GLP-1-R, 15 min, read-out: EC50 hGLP-1R CHO-K1); 0.07 nM in series [4]; 0.11 nM in series [3].

Take `CC[C@H](C)[C@H](NC(=O)[C@H](Cc1ccccc1)NC(=O)[C@H](CC(=O)O)NC(=O)[C@H](CCCCN)NC(=O)[C@H](C)NC(=O)[C@H](CCCNC(=N)N)NC(=O)[C@H](CCCNC(=N)N)NC(=O)[C@H](CCC(=O)O)NC(=O)[C@H](CC(=O)O)NC(=O)[C@H](CC(C)C)NC(=O)[C@H](Cc1ccc(O)cc1)NC(=O)[C@H](CCCCN)NC(=O)[C@H](CO)NC(=O)[C@H](Cc1ccc(O)cc1)NC(=O)[C@H](CC(=O)O)NC(=O)[C@H](CO)NC(=O)[C@@H](NC(=O)[C@H](Cc1ccccc1)NC(=O)[C@@H](NC(=O)CNC(=O)[C@H](CCC(N)=O)NC(=O)C1(NC(=O)[C@@H](N)Cc2c[nH]cn2)CCC1)[C@@H](C)O)[C@@H](C)O)C(=O)N[C@@H](CCCCNC(=O)CNC(=O)CNC(=O)[C@H](CO)NC(=O)CNC(=O)[C@H](CO)NC(=O)CNC(=O)CC[C@H](NC(=O)CCCCCCCCCCCCCCCCC(=O)O)C(=O)O)C(=O)N[C@@H](Cc1c[nH]c2ccccc12)C(=O)N[C@@H](CC(C)C)C(=O)N[C@@H](CCC(=O)O)C(=O)N[C@@H](CO)C(=O)N[C@@H](C)C(N)=O` [Compound 14]: in series [1], the “Ratio GLP-1/Glucagon” value stood at 3.33. Moreover, the EC50 worked out at 0.18 nM in series [4] and 0.19 nM in series [3].

Consider `CC[C@H](C)[C@H](NC(=O)[C@H](Cc1ccccc1)NC(=O)[C@H](CC(=O)O)NC(=O)[C@H](CCCCN)NC(=O)[C@H](C)NC(=O)[C@H](CCCNC(=N)N)NC(=O)[C@H](CCCNC(=N)N)NC(=O)[C@H](CCC(=O)O)NC(=O)[C@H](CC(=O)O)NC(=O)[C@H](CC(C)C)NC(=O)[C@H](Cc1ccc(O)cc1)NC(=O)[C@H](CCCCN)NC(=O)[C@H](CO)NC(=O)[C@H](Cc1ccc(O)cc1)NC(=O)[C@H](CC(=O)O)NC(=O)[C@H](CO)NC(=O)[C@@H](NC(=O)[C@H](Cc1ccccc1)NC(=O)[C@@H](NC(=O)CNC(=O)[C@H](CCC(N)=O)NC(=O)C1(NC(=O)[C@@H](N)Cc2c[nH]cn2)CCC1)[C@@H](C)O)[C@@H](C)O)C(=O)N[C@@H](CCC(=O)O)C(=O)N[C@@H](Cc1c[nH]c2ccccc12)C(=O)N[C@@H](CC(C)C)C(=O)N[C@@H](CCC(=O)O)C(=O)N[C@@H](CCCCNC(=O)CNC(=O)CNC(=O)[C@H](CO)NC(=O)CNC(=O)[C@H](CO)NC(=O)CNC(=O)CC[C@H](NC(=O)CCCCCCCCCCCCCCCCC(=O)O)C(=O)O)C(=O)N[C@@H](C)C(N)=O` [Compound 16], for which, in series [1], the “Ratio GLP-1/Glucagon” value is listed as 3.31. Also, the midpoint of the response in series [3], the EC50, lay at 0.19 nM.
